Assay results reported in US20140272065A1, “ORGANIC COMPOUNDS” (Givaudan S.A., priority 2011, published 2014).

Legend:
[1] = Flavourist comparison of test bouillon with reference bouillon; assay type: in vivo; conditions: 200 ppm in bouillon; 4 flavourists
Procedure: A bouillon mix was prepared from 155.0 g of sodium chloride, 157.0 g of dextrose monohydrate (ex Tapioca), 0.2 g of celery oleoresin, 0.3 g of oleoresin turmeric Vegex, 0.2 g of oleoresin coriander seed, 444.8 g maltodextrin 5-8 DE, 40.0 g vegetable oil soya bean refined, 30.0 g yeast standard light, 4.0 g of onion powder, 4.0 g of garlic powder, 0.5 g of white pepper and 164.0 g of potato starch.
32 g of the well-mixed ingredients was added to 1 L of boiling water and stirred until completely dissolved.

[2] = Flavourist comparison of test white sauce with reference white sauce; assay type: in vivo; conditions: 4 flavourists
Procedure: A white sauce mix was prepared from 380 g of modified starch Prejel, 200 g of whey powder Esprion 300, 200 g of fat powder (ex DMV), 115 g of sodium chloride, 85.3 g of maltodextrin 14, 3 g of onion powder, 0.2 g of curcuma extract powder (ex turmeric), 1.5 g of white pepper and 15 g of probase high impact.
80 g of the well-mixed ingredients was added to 1 L of boiling water and stirred well.

[3] = Flavourist tasting: enhancement effect on NaCl, MSG and ribonucleotides; assay type: in vivo; conditions: effect marked between 0 and 10
Procedure: Six solutions were prepared: • A a solution of 0.5% NaCl • B a solution of 0.5% NaCl and 0.03% MSG • C a solution of 0.5% NaCl and 0.015% ribonucleotides • D a solution of 0.5% NaCl and 10-50 ppm Example 1 compound • E a solution of 0.5% NaCl and 0.03% MSG and 10-50 ppm Example 1 compound • F a solution of 0.5% NaCl and 0.015% ribonucleotides and 10-50 ppm Example 1 compound The samples were tasted by a group of 5-10 flavourists aged between 30 and 60. The taste of solution D is compared with that of A to determine the enhancement effect of Example 1 compound on NaCl. Similarly, solution E is compared with solution B and solution F with solution C to determine the enhancement effect of Example 1 compound on MSG and ribonucleotides respectively. The effect is marked between 0 and 10, the greater the value the greater the effect.

[4] = Flavourist tasting: umami and salt intensity of solution B versus reference solution A; assay type: in vivo; conditions: scale -3 (much lower than base) to 3 (much higher), average of 4 flavourists
Excerpt: The samples were tasted by a small group of flavourists (2 male, 2 female, aged between 30 and 60). The intensity of the umami and salt taste of solution B was compared with that of the reference (solution A) and rated according to the following intensity scale: […]

[5] = Flavourist comparison of test Béchamel sauce with cheese with reference sauce; assay type: in vivo; conditions: 4 flavourists
Procedure: A Béchamel sauce with cheese was prepared from 70 g of butter, 50 g of flower, 1000 g of milk, 5 g of sodium chloride, 0.3 g of MSG, 0.15 g of nutmeg powder, 0.25 g of black pepper and 80 g of cheese powder. A blanc roux was prepared from the butter and flower before adding the other ingredients.

[6] = background statement, cited from earlier work; for umami taste: aspartic acid at concentrations comparable to MSG
[7] = 10 ppm in 0.5% NaCl and 0.03% MSG
[8] = 20 ppm in 0.5% NaCl and 0.03% MSG

SMILES: NC(CC(C(=O)O)C(=O)O)C(=O)O (racemic) [gamma-carboxy-DL-glutamic acid, Gamma-Carboxy-DL-Glutamic Acid]
- taste of test bouillon compared with reference bouillon [1]: more umami, slightly more bitter, had more an ionic effect and salivating aftertaste than the reference bouillon
- taste of test white sauce compared with reference white sauce ([2]; 250 ppm in white sauce): more umami, more metallic, fuller, more long-lasting and slightly more salivating than the reference white sauce
- NaCl Taste ([3]; 10 ppm in 0.5% NaCl (solution D versus A, reference 0.0)): 2.0
- Ribo taste ([3]; 10 ppm in 0.5% NaCl and 0.015% ribonucleotides (solution F versus C, reference 5.0)): 5.5
- MSG taste ([3]; 10 ppm in 0.5% NaCl and 0.03% MSG (solution E versus B, reference 5.0)): 5.5
- Intensity Taste Salt (NaCl) [4, 7]: 0.67
- Intensity Taste Umami [4, 7]: 0.67
- taste of test Béchamel sauce with cheese compared with reference ([5]; 350 ppm in Béchamel sauce with cheese): more metallic, more ionic, more long-lasting and had more salivating effect than the reference Béchamel sauce

SMILES: CC(CC(N)C(=O)O)C(=O)O (centres unmarked) [2-amino-4-methylpentanedioic acid, 2-amino-4-methylpentanedioic Acid]
- Intensity Taste Salt (NaCl) [4, 8]: 1.00
- Intensity Taste Umami [4, 8]: 1.25

SMILES: Cl.NC(CC(C(=O)O)c1ccccc1)C(=O)O (centres unmarked) [2-amino-4-phenylpentanedioic acid, HCl, 2-amino-4-phenylpentanedioic Acid, HCl]
- Intensity Taste Salt (NaCl) [4, 7]: 0.67
- Intensity Taste Umami [4, 7]: 0.00

SMILES: NC(CC(O)C(=O)O)C(=O)O (centres unmarked) [4-hydroxyglutamic acid, 4-hydroxyglutamic Acid]
- taste of test bouillon compared with reference bouillon [1]: had an enhanced body of salt and was more salivating and more savoury-lingering than the reference bouillon
- taste of test white sauce compared with reference white sauce ([2]; 300 ppm in white sauce): had an enhanced body of salt and was more salivating and umami-like than the reference white sauce
- NaCl Taste ([3]; 50 ppm in 0.5% NaCl (solution D versus A, reference 0.0)): 1.7
- Ribo taste ([3]; 50 ppm in 0.5% NaCl and 0.015% ribonucleotides (solution F versus C, reference 5.0)): 7.0
- MSG taste ([3]; 50 ppm in 0.5% NaCl and 0.03% MSG (solution E versus B, reference 5.0)): 5.7
- Intensity Taste Salt (NaCl) [4, 7]: 0.50
- Intensity Taste Umami [4, 7]: 0.50
- taste of test Béchamel sauce with cheese compared with reference ([5]; 400 ppm in Béchamel sauce with cheese): had more body, more mouthfullness and was creamier than the reference Béchamel sauce

SMILES: [Cl][Pb][Cl] [Lead chloride]
- taste of salts compared with sodium chloride [6]: tasting sweet

SMILES: N[C@@H](CCC(=O)O)C(=O)[O-].[Na+] [MSG, monosodium glutamate]
- umami taste [6]: highly potent umami tastant

SMILES: [Cl-].[K+] [Potassium chloride]
- taste of salts compared with sodium chloride [6]: somewhat salty but clearly more bitter

SMILES: CC(=O)[O-].[Na+] [Sodium acetate]
- taste of salts compared with sodium chloride [6]: hardly any taste

SMILES: N[C@@H](CC(=O)O)C(=O)O [aspartic acid]
- umami taste [6]: hardly any umami taste

SMILES: O=C([O-])[C@H](O)[C@@H](O)[C@H](O)[C@H](O)CO.[Na+] [sodium gluconate]
- taste of salts compared with sodium chloride [6]: hardly any taste
